Test results: US20230150924A1, “NOVEL COMPOUND HAVING CANCER METASTASIS INHIBITORY ACTIVITY, PREPARATION METHOD THEREFOR, AND PHARMACEUTICAL COMPOSITION FOR INHIBITING CANCER METASTASIS AND INVASION OR TREATING COLORECTAL CANCER, COMPRISING COMPOUND” (CELLGENTEK CO., LTD., priority 2019, published 2023)
Like-named read-outs stand apart in the source and are kept apart here.

Experiments:
KAI1 promoter = KAI1 promoter luciferase reporter assay in transfected Caco2 cells; assay type: cell-based, human; conditions: for fold induction at 1 µM: Homo sapiens, Caco-2, 16 h, read-out: Relative KAI promoter activity
[1] = system: invasion of colorectal cancer cells; assay: In vivo relative invation (invasion; EV and KITENIN controls, no method described); conditions: relative to EV (=1); KIT = KITENIN
[2] = 1 μM compound, 16 hours, transfected Caco2 cells, luciferase activity relative to DMSO control (=1)

Compound | fold induction at 1 µM (KAI1 promoter; [2]) | In vivo relative invation [1] | Relative KAI promoter activity (KAI1 promoter; [2]) | fold induction at 1 µM (KAI1 promoter)
O=C(CNC(=O)c1ccc(C(F)(F)F)cc1)c1ccc(Cl)cc1 [Example 75, N-(2-(4-chlorophenyl)-2-oxoethyl)-4-(trifluoromethyl)benzamide] | 0.71 | 1.283 | – | –
COc1cccc(C(=O)CNC(=O)c2cccc(CN3CCC(N4CCCCC4)CC3)c2)c1 [Example 283, 3-([1,4′-bipiperidin]-1′-ylmethyl)-N-(2-(3-methoxyphenyl)-2-oxoethyl)benzamide] | 1.33 | 1.235 | – | –
O=C(CNC(=O)c1ccc(OC(F)(F)F)cc1)c1ccc(Cl)cc1 [Example 81, N-(2-(4-chlorophenyl)-2-oxoethyl)-4-(trifluoromethoxy)benzamide] | 0.8 | 1.142 | – | –
O=C(CNC(=O)c1ccccc1CN1CCCc2ccccc21)c1ccccc1 [Example 297, 2-((3,4-dihydroquinolin-1(2H)-yl)methyl)-N-(2-oxo-2-phenylethyl)benzamide] | 1.33 | 1.231 | – | –
COc1ccc(NC(=O)COc2ccccc2C(=O)NCC(=O)c2ccccc2)cc1F [Example 207, 2-(2-((3-fluoro-4-methoxyphenyl)amino)-2-oxoethoxy)-N-(2-oxo-2-phenylethyl)benzamide] | 1.43 | 1.036 | – | –
COc1cccc(C(=O)CNC(=O)c2cccc(CC3CCN(c4ccccc4F)CC3)c2)c1 [Example 281, 3-((1-(2-fluorophenyl)piperidin-4-yl)methyl)-N-(2-(3-methoxyphenyl)-2-oxoethyl)benzamide] | 1.52 | 1.236 | – | –
COc1ccccc1C(=O)N1CCC(Oc2ccccc2C(=O)NCC(=O)c2ccccc2)CC1 [Example 162, 2-((1-(2-methoxybenzoyl)piperidin-4-yl)oxy)-N-(2-oxo-2-phenylethyl)benzamide] | 0.99 | 1.043 | – | –
O=C(CNC(=O)c1ccccc1CN1CCN(c2ccccc2F)CC1)c1ccccc1 [Example 299, 2-((4-(2-fluorophenyl)piperazin-1-yl)methyl)-N-(2-oxo-2-phenylethyl)benzamide] | 2.17 | 1.068 | – | –
C/C=C/C(=O)NCC(=O)c1ccccc1 [Example 8, (E)-N-(2-oxo-2-phenylethyl)but-2-enamide] | 1.15 | 1.077 | – | –
Cc1cc(C)cc(C(=O)NCC(=O)c2ccc(Cl)cc2)c1 [Example 83, N-(2-(4-chlorophenyl)-2-oxoethyl)-3,5-dimethylbenzamide] | 0.8 | 1.171 | – | –
O=C(CNC(=O)c1cccc(CN2CCN(c3ccc([N+](=O)[O-])cc3)CC2)c1)c1ccccc1 [Example 238, 3-((4-(4-nitrophenyl)piperazin-1-yl)methyl)-N-(2-oxo-2-phenylethyl)benzamide] | 1.6 | 1.12 | – | –
O=C(CNC(=O)c1cccc(Cl)c1)c1ccccc1 [Example 7, 3-chloro-N-(2-oxo-2-phenylethyl)benzamide] | 1.2 | 1.091 | – | –
C=CC(=O)NCC(=O)c1ccccc1 [Example 10, N-(2-oxo-2-phenylethyl) acrylamide] | 1.08 | 0.9099 | – | –
CCCc1ccc(NC(=O)COc2ccccc2C(=O)NCC(=O)c2ccccc2)cc1 [Example 213, 2-(2-oxo-2-((4-propylphenyl)amino)ethoxy)-N-(2-oxo-2-phenylethyl)benzamide] | 1.14 | 1.209 | – | –
O=C(CNC(=O)c1ccc(F)c(F)c1)c1ccc(Cl)cc1 [Example 78, N-(2-(4-chlorophenyl)-2-oxoethyl)-3,4ifluorobenzamide] | 0.9 | 1.17 | – | –
CCCCCN(CCCCC)Cc1cccc(C(=O)NCC(=O)c2cccc(OC)c2)c1 [Example 291, 3-((dipentylamino)methyl)-N-(2-(3-methoxyphenyl)-2-oxoethyl)benzamide] | 1.62 | 1.126 | – | –
O=C(CNC(=O)c1ccccc1OC1CCN(C(=O)c2ccc(Br)cc2)CC1)c1ccccc1 [Example 181, 2-((1-(4-bromobenzoyl)piperidin-4-yl)oxy)-N-(2-oxo-2-phenylethyl)benzamide] | 1.06 | 1.194 | – | –
O=C(CNC(=O)c1ccc(CN2CCN(c3ncccn3)CC2)cc1)c1ccccc1 [Example 258, N-(2-oxo-2-phenylethyl)-4-((4-(pyrimidin-2-yl)piperazin-1-yl)methyl)benzamide] | 2.31 | 1.223 | – | –
O=C(CNS(=O)(=O)c1ccc(F)cc1)c1ccc(N2CCOCC2)cc1 [Example 146, 4-fluoro-N-(2-(4-morpholinophenyl)-2-oxoethyl)benzenesulfonamide] | 1.16 | 0.7474 | – | –
COc1ccc(C(=O)NCC(=O)c2ccc(N(C)C)cc2)cc1 [Example 104, N-(2-(4-(dimethylamino)phenyl)-2-oxoethyl)-4-methoxybenzamide] | – | 1.115 | 1.78 | –

Compound | fold induction at 1 µM (KAI1 promoter; [2]) | In vivo relative invation [1] | Relative KAI promoter activity (KAI1 promoter; [2]) | fold induction at 1 µM (KAI1 promoter)
O=C(CNC(=O)c1ccccc1OC1CCN(C(=O)c2cccc(OC(F)(F)F)c2)CC1)c1ccccc1 [Example 200, N-(2-oxo-2-phenylethyl)-2-((1-(3-(trifluoromethoxy)benzoyl)piperidin-4-yl)oxy)benzamide] | 1.01 | 1.074 | – | –
CCOC(=O)N1CCN(Cc2ccccc2C(=O)NCC(=O)c2ccccc2)CC1 [Example 305, ethyl 4-(2-((2-oxo-2-phenylethyl)carbamoyl)benzyl)piperazine-1-carboxylate] | 1.14 | 1.186 | – | –
COc1ccccc1N1CCN(Cc2ccc(C(=O)NCC(=O)c3ccccc3)cc2)CC1 [Example 259, 4-((4-(2-methoxyphenyl)piperazin-1-yl)methyl)-N-(2-oxo-2-phenylethyl)benzamide] | 1.23 | 1.251 | – | –
CN(C)c1ccc(C(=O)CNC(=O)c2ccc(Cl)cc2)cc1 [Example 88, 4-chloro-N-(2-(4-(dimethylamino)phenyl)-2-oxoethyl)benzamide] | 1.35 | 0.9216 | – | –
CC(C)(C)CC(=O)NCC(=O)c1ccccc1 [Example 19, 3,3-dimethyl-N-(2-oxo-2-phenylethyl) butanamide] | 0.98 | 1.201 | – | –
CCCCC(=O)NCC(=O)c1ccc(N2CCOCC2)cc1 [Example 145, N-(2-(4-morpholinophenyl)-2-oxoethyl)pentanamide] | 1.1 | 1.433 | – | –
CN(C)c1ccc(C(=O)CNC(=O)c2ccc(F)c(F)c2)cc1 [Example 116, N-(2-(4-(dimethylamino)phenyl)-2-oxoethyl)-3,4ifluorobenzamide] | 2.15 | 1.164 | – | –
CN(Cc1ccccc1C(=O)NCC(=O)c1ccccc1)C1CCCCC1 [Example 298, 2-((cyclohexyl(methyl)amino)methyl)-N-(2-oxo-2-phenylethyl)benzamide] | 1.34 | 1.213 | – | –
CN(C)c1ccc(C(=O)CNC(=O)c2cccc(Cl)c2Cl)cc1 [Example 118, 2,3-dichloro-N-(2-(4-(dimethylamino)phenyl)-2-oxoethyl)benzamide] | 1.74 | 0.7681 | – | –
CN(C)c1ccc(C(=O)CNC(=O)c2ccc(F)cc2)cc1 [Example 91, N-(2-(4-(dimethylamino)phenyl)-2-oxoethyl)-4-fluorobenzamide] | 2.44 | 1.058 | – | –
COc1cccc(C(=O)CNC(=O)C2CC2)c1 [Example 125, N-(2-(3-methoxyphenyl)-2-oxoethyl)cyclopropanecarboxamide] | 1.48 | 0.8965 | – | –
O=C(CNC(=O)c1ccc(F)cc1Cl)c1ccccc1 [Example 33, 2-chloro-4-fluoro-N-(2-oxo-2-phenylethyl)benzamide] | 1.78 | 0.7513 | – | –
O=C(CNC(=O)c1ccc(-c2ccccc2)cc1)c1ccc(Cl)cc1 [Example 86, N-(2-(4-chlorophenyl)-2-oxoethyl)-[1,1′-biphenyl]-4-carboxamide] | 1.01 | 1.193 | – | –
O=C(CNS(=O)(=O)Cc1ccccc1)c1ccc(N2CCOCC2)cc1 [Example 149, N-(2-(4-morpholinophenyl)-2-oxoethyl)-1-phenylmethanesulfonamide] | 1.07 | 1.261 | – | –
CN(C)c1ccc(C(=O)CNC(=O)C2CC2)cc1 [Example 100, N-(2-(4-(dimethylamino)phenyl)-2-oxoethyl)cyclopropanecarboxamide] | 1.62 | 1.094 | – | –
O=C(CNC(=O)c1ccccc1Cl)c1ccccc1 [Example 6, 2-chloro-N-(2-oxo-2-phenylethyl)benzamide] | – | 1.144 | – | 1.91
O=C(CNC(=O)c1cccc(Cl)c1)c1ccc(Cl)cc1 [Example 47, 3-chloro-N-(2-(4-chlorophenyl)-2-oxoethyl)benzamide] | 0.76 | 0.9038 | – | –
Cc1ccccc1C(=O)NCC(=O)c1cccnc1 [Example 135, 2-methyl-N-(2-oxo-2-(pyridin-3-yl)ethyl)benzamide] | 1.3 | 1.485 | – | –
O=C(CNC(=O)c1ccccc1OC1CCN(C(=O)c2ccc(Cl)cc2)CC1)c1ccccc1 [Example 151, 2-((1-(4-chlorobenzoyl)piperidin-4-yl)oxy)-N-(2-oxo-2-phenylethyl)benzamide] | 1.05 | 1.212 | – | –
